The text below walks through data of ChEMBL document CHEMBL3112426, “Discovery of a new binding site on human choline kinase α1: design, synthesis, crystallographic studies, and biological evaluation of asymmetrical bispyridinium derivatives” (J Med Chem, 2014).

Calls of active or inactive are those of the source. No cut-off for these calls is given here.

Test [1] relates to HeLa. The test can be described thus: Cell cycle arrest in human HeLa cells assessed as accumulation at G2/M phase at 10 uM after 24 hrs by FACS flow cytometric analysis (reference value: 3.9 +/- 0.10%). Format: functional.
In test [2] the test system is HeLa. The test can be described thus: Antiproliferative activity against human HeLa cells after 48 hrs by MTT assay. Format: functional, cell-based. A general note: Formazan colour is commonly taken as a measure of viable cells.
In test [3] the test system is HeLa. The test can be described thus: Cell cycle arrest in human HeLa cells assessed as accumulation at G0/G1 phase at 10 uM after 24 hrs by FACS flow cytometric analysis (reference value: 69.9 +/- 2.41%). Format: functional. For orientation: Flow cytometry measures light scatter and fluorescence of single cells or particles in a stream.
Test [4] has as its system HeLa. Put plainly: Cell cycle arrest in human HeLa cells assessed as accumulation at S phase at 10 uM after 24 hrs by FACS flow cytometric analysis (reference value: 25 +/- 2.53%). Format: functional.
The subject of test [5] is HeLa. The test can be described thus: Induction of apoptosis in human HeLa cells at 10 uM after 24 hrs by annexin V-FITC/propidium iodide staining-based FACS flow cytometric analysis. Format: functional, cell-based.
The nature of test [6]: Inhibition of choline kinase in human HepG2 cells assessed as incorporation of [14C] from [methyl-14C]choline into phosphocholine after 20 mins by liquid scintillation counting analysis. Format: cell-based.
For test [7], the target named is Choline kinase alpha (Homo sapiens, UniProt P35790). The test can be described thus: Binding affinity to human CK-alpha1 by tryptophan fluorescence spectroscopic analysis.
For test [8], the species on record is Homo sapiens. The test can be described thus: Selectivity ratio of Kd for human CK-beta to Kd for human CK-alpha1.
Test [9] concerns HeLa. The test can be described thus: Induction of apoptosis in human HeLa cells at 10 uM after 24 hrs by annexin V-FITC/propidium iodide staining-based FACS flow cytometric analysis (reference value: 14.8%). Format: functional.
Test [10] addresses Choline/ethanolamine kinase (Homo sapiens, UniProt Q9Y259). The test can be described thus: Binding affinity to human CK-beta by tryptophan fluorescence spectroscopic analysis.
For test [11], the system named is HeLa. Put plainly: Induction of apoptosis in human HeLa cells assessed as upregulation of caspase-3 protein expression after 12 to 48 hrs by Western blot analysis. Format: functional, cell-based.

Chain of Choline kinase alpha (P35790 whole entry): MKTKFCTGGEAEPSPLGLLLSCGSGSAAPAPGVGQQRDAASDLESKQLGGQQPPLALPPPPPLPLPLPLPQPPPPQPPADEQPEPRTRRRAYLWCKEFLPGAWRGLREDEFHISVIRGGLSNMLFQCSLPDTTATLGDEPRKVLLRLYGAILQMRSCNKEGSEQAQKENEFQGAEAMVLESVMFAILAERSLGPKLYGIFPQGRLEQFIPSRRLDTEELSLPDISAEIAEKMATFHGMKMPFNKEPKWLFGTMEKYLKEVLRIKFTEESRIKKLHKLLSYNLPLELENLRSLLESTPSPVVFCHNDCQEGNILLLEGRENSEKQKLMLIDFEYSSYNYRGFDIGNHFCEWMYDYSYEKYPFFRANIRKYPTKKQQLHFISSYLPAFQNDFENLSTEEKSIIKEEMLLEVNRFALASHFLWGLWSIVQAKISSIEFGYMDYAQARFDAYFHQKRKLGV
Chain of Choline/ethanolamine kinase (Q9Y259 whole entry): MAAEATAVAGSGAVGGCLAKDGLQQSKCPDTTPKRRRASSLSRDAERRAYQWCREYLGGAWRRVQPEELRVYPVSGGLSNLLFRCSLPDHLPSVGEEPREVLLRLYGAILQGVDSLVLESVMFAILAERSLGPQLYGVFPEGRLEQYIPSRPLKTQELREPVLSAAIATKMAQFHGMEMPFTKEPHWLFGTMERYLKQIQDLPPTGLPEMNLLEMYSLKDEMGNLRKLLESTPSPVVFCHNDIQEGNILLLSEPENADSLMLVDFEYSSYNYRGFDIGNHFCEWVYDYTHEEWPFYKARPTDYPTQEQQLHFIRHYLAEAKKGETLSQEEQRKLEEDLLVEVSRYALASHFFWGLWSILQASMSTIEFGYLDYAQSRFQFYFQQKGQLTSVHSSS

A word on the IC50: it is the point on the concentration scale where inhibition reaches its midpoint. On to `CN(c1ccc(Cl)cc1)c1cc[n+](Cc2ccc(-c3ccc(C[n+]4ccc(N5CCCC5)cc4)cc3)cc2)cc1.[Br-].[Br-]`, for which the figures for the Activity in [1], in test [3] and in test [4] were 3.1%, 73.1% and 23.8%, respectively. Also, the IC50 in [2] stood at 4.1 µM; in [6], 2.2 µM. Also, the outcome in [5] was Active.

Broadly, the Kd is the free concentration of one partner at which half of the binding sites on the other are occupied at equilibrium, for simple one-to-one binding. A low value points to higher affinity. On to `CN(C)c1cc[n+](Cc2ccc(CCc3ccc(C[n+]4ccc(N5CCCC5)cc4)cc3)cc2)cc1.[Br-].[Br-]`, for which the Activity is 2.6% in test [1], 72.5% in test [3] and 24.9% in test [4]. Moreover, the dissociation constant Kd in test [7] is 0.4 µM. The results for the IC50 in test [2] and in [6] were 8.6 µM and 1.2 µM, respectively. Further, in test [5], the outcome was Active.

Turning to `CN(C)c1cc[n+](Cc2ccc(CCc3ccc(C[n+]4ccc(N(C)c5ccc(Cl)cc5)cc4)cc3)cc2)cc1.[Br-].[Br-]`, the Activity in test [1] is 1.8%; in test [3], 83.3%; in test [4] it was 14.9%. The IC50 worked out at 1.3 µM in test [2] and 0.7 µM in test [6]. In [5], the outcome was Active.

As for `CN(c1ccc(Cl)cc1)c1cc[n+](Cc2ccc(CCc3ccc(C[n+]4ccc(N5CCCC5)cc4)cc3)cc2)cc1.[Br-].[Br-]`, the results for the Activity in test [1], in test [3] and in test [4] were 2.2%, 77% and 20.8%, respectively. The figures for the IC50 in [2] and in test [6] were 9.4 µM and 2.5 µM, respectively. Moreover, the result in [5] was Active.

For `CN(C)c1cc[n+](Cc2ccc(CCCCc3ccc(C[n+]4ccc(N(C)c5ccc(Cl)cc5)cc4)cc3)cc2)cc1.[Br-].[Br-]`, the Selectivity ratio in test [8] was determined as 200. The Activity in test [1] is 0.9%; in test [9], 55.6%; in test [3], 85.9%; in test [4], 12.8%; in test [11], “Dose-dependent effect”. The values for the IC50 in test [2] and in test [6] were 1.9 µM and 1.2 µM, respectively. Further, the outcome in [5] was Active. For the same compound, the affinity in test [10], expressed as Kd, was 22 µM.

Take `CN(c1ccc(Cl)cc1)c1cc[n+](Cc2ccc(C[n+]3ccc(N4CCCC4)cc3)cc2)cc1`: the IC50 was found to be 48.1 µM in [2] and 0.6 µM in [6].

For the compound `CN(C)c1cc[n+](Cc2ccc(CCCCc3ccc(C[n+]4ccc(N5CCCC5)cc4)cc3)cc2)cc1.[Br-].[Br-]`, the results for the Activity in [1], in test [3] and in test [4] were 2.8%, 77.8% and 19.2%, respectively. Also, the IC50 in [2] was found to be 2.1 µM; in test [6], 0.9 µM. Further, the result in test [5] was Active.

Regarding `CN(C)c1cc[n+](Cc2ccc(C[n+]3ccc(N(C)c4ccc(Cl)cc4)cc3)cc2)cc1`, the IC50 in test [2] was 24.6 µM; in test [6] it was 0.9 µM.

Compound `CC(=O)O[C@H]1C(=O)[C@@]2(C)[C@H]([C@H](OC(=O)c3ccccc3)[C@]3(O)C[C@H](OC(=O)[C@H](O)[C@@H](NC(=O)c4ccccc4)c4ccccc4)C(C)=C1C3(C)C)[C@]1(OC(C)=O)CO[C@@H]1C[C@@H]2O` [PACLITAXEL] gave an IC50 in test [2] of 8 ng/mL. Also, the Activity entry in [11] was “Dose-dependent effect”.

In the case of `CN(C)c1cc[n+](Cc2ccc(-c3ccc(C[n+]4ccc(N5CCCC5)cc4)cc3)cc2)cc1.[Br-].[Br-]`, the Activity stood at 2.7% in test [1], 72.8% in [3] and 24.5% in test [4]. Besides, the IC50 in test [2] amounted to 3.7 µM; in test [6], 0.8 µM. Further, the outcome in test [5] was Active.

As for `CN(C)c1cc[n+](Cc2ccc(C[n+]3ccc(N4CCCC4)cc3)cc2)cc1`, the IC50 in [2] turned out to be 15.9 µM; in test [6], 8 µM.

In turn, `CN(C)c1cc[n+](Cc2ccc(-c3ccc(C[n+]4ccc(N(C)c5ccc(Cl)cc5)cc4)cc3)cc2)cc1` showed a Kd in [7] of 0.62 µM. The IC50 in [2] worked out at 11.7 µM; in test [6] it was 1.5 µM.

For `CN(c1ccc(Cl)cc1)c1cc[n+](Cc2ccc(CCCCc3ccc(C[n+]4ccc(N5CCCC5)cc4)cc3)cc2)cc1.[Br-].[Br-]`, the Activity was 1.3% in [1], 83.3% in [3] and 15.4% in test [4]. The IC50 in test [2] was found to be 2.1 µM; in test [6], 1.5 µM. For the same compound, the outcome in test [5] was Active.
